Target: HIV-1 PR (Human immunodeficiency virus type 1 group M subtype B, UniProt P04585)
Test: HIV-protease inhibitory activity assay (FRET peptide substrate)
Assay type: biochemical
Details: Test Example 1
Procedure, shortened: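 HIV-1 PR (0.83 ng) preincubated with compounds 20 min at room temperature in 0.1 mol/L NaAc, 0.5 mol/L NaCl, 1 mmol/L EDTA, 1 mmol/L DTT, 0.05% Tween 20, pH 4.8. Cleavage of HiLyte Fluor 488/QXL 520 FRET peptide (2 μmol/L) read after 60 minutes at 485/535 nm; IC50 from four-parameter logistic fit.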

CC(C)CN(CC(O)C(Cc1ccc(NCc2cc(C(F)(F)F)ccc2-c2sc3c(c2C(=O)O)CC(C)(C)CC3)cc1)NC(=O)OC1COC2OCCC12)S(=O)(=O)c1ccc2ncsc2c1 (stereo not shown) [Compound I-871]
IC50: 4.93 nM

COc1ccc(S(=O)(=O)N(CC(C)C)CC(O)C(Cc2ccc(NCc3ccccc3-c3ccccc3C(=O)O)cc2)NC(=O)OC2COC3(C)OCCC23)cc1 (stereo not shown) [Compound I-497]
IC50: 1.96 nM

COc1ccc(S(=O)(=O)N(CC(C)C)CC(O)C(Cc2ccc(N(C)Cc3sc4c(c3C(=O)O)CC(C)(C)CC4)cc2)NC(=O)OC2COC3(C)OCCC23)cc1 (stereo not shown) [Compound I-46]
IC50: 1.86 nM

COc1ccc(S(=O)(=O)N(CC2CCC2)CC(O)C(Cc2ccc(NCc3ccccc3C(=O)Nc3sc4c(c3C(=O)O)CC(C)(C)CC4)cc2)NC(=O)OC2COC3(C)OCCC23O)cc1 (stereo not shown) [Compound I-893]
IC50: 5.83 nM

COc1ccc(S(=O)(=O)N(CC(C)C)CC(O)C(Cc2ccc(N3CCN(C(=O)c4sc5c(c4C(=O)O)CC(C)(C)CC5)CC3)cc2)NC(=O)OC2COC3(C)OCCC23)cc1 (stereo not shown) [Compound I-224]
IC50: 1.96 nM

COc1ccc(S(=O)(=O)N(CC(C)C)CC(O)C(Cc2ccc(NCc3cc(C)c(-c4sc5c(c4C(=O)O)CC(C)(C)CC5)cc3C)cc2)NC(=O)OC2COC3(C)OCCC23)cc1 (stereo not shown) [Compound I-556]
IC50: 5.45 nM

COc1ccc(S(=O)(=O)N(CC(C)C)CC(O)C(Cc2ccc(N3CCC(c4sc5c(c4C(=O)O)CC(C)(C)CC5)CC3)cc2)NC(=O)OC2COC3(C)OCCC23)cc1 (stereo not shown) [Compound I-227]
IC50: 3.26 nM

COc1ccc(S(=O)(=O)N(CC(C)C)CC(O)C(Cc2ccc(OCc3cccnc3-c3sc4c(c3C(=O)O)CC(C)(C)CC4)cc2)NC(=O)OC2COC3(C)OCCC23)cc1 (stereo not shown) [Compound I-90]
IC50: 1.32 nM

COc1ccc(S(=O)(=O)N(CC(C)C)CC(O)C(Cc2ccc(-n3cccc3)cc2)NC(=O)OC2COC3(C)OCCC23)cc1 (stereo not shown) [Compound I-521]
IC50: 2.84 nM

COc1ccc(S(=O)(=O)N(CC(C)C)CC(O)C(Cc2ccc(NCC3=C(c4sc5c(c4C(=O)O)CC(C)(C)CC5)CN(C(=O)O)C3)cc2)NC(=O)OC2COC3(C)OCCC23)cc1 (stereo not shown) [Compound I-402]
IC50: 1.89 nM

COc1ccc(S(=O)(=O)N(CC(C)C)CC(O)C(Cc2ccc(NCc3ccccc3-c3cnc(-c4sc5c(c4C(=O)O)CC(C)(C)CC5)nc3)cc2)NC(=O)OC2COC3(C)OCCC23)cc1 (stereo not shown) [Compound I-712]
IC50: 2.02 nM

COc1ccc(S(=O)(=O)N(CC(C)C)CC(O)C(Cc2ccc(NCc3cc(OC(F)(F)F)ccc3-c3sc4c(c3C(=O)O)CC(C)(C)CC4)cc2)NC(=O)OC2COC3(C)OCCC23)cc1 (stereo not shown) [Compound I-678]
IC50: 5.48 nM

COc1ccc(S(=O)(=O)N(CC(C)C)CC(O)C(Cc2ccc(OC3CCC(C(C)(C)C(=O)O)CC3)cc2)NC(=O)OC2COC3(C)OCCC23)cc1 (stereo not shown) [Compound I-310]
IC50: 1.96 nM

COc1ccc(S(=O)(=O)N(CC(C)C)CC(O)C(Cc2ccc(CN(C)C3CCCCC3c3sc4c(c3C(=O)O)CC(C)(C)CC4)cc2)NC(=O)OC2COC3(C)OCCC23)cc1 (stereo not shown) [Compound I-341]
IC50: 1.89 nM

COc1ccc(S(=O)(=O)N(CC(C)C)CC(O)C(Cc2ccc(OCc3ccccc3-c3ccc4[nH]c(=O)c(-c5ccc(Oc6ccccc6)cc5)c(O)c4c3)cc2)NC(=O)OC2COC3(C)OCCC23)cc1 (stereo not shown) [Compound I-180]
IC50: 2.71 nM

CC1(C)CCc2sc(-c3ccc(C(F)(F)F)cc3CNc3ccc(CC(NC(=O)OC4COC5OCCC45)C(O)CN(CC4CCCC4)S(=O)(=O)c4ccc5ncsc5c4)cc3)c(C(=O)O)c2C1 (stereo not shown) [Compound I-873]
IC50: 8.43 nM

COc1ccc(S(=O)(=O)N(CC(C)C)CC(O)C(Cc2ccc(NCc3cc(N4CC(C)(C)C4=O)ccc3-c3sc4c(c3C(=O)O)CC(C)(C)CC4)cc2)NC(=O)OC2COC3(C)OCCC23)cc1 (stereo not shown) [Compound I-728]
IC50: 2.96 nM

COc1ccc(S(=O)(=O)N(CC(C)C)CC(O)C(Cc2ccc(NCC3=C(c4sc5c(c4C(=O)O)CC(C)(C)CC5)CCN(C)C3)cc2)NC(=O)OC2COC3(C)OCCC23)cc1 (stereo not shown) [Compound I-403]
IC50: 2.3 nM

COc1ccc(S(=O)(=O)N(CC(C)C)CC(O)C(Cc2ccc(NCc3ccc(C(=O)O)cc3-c3sc4c(c3C(=O)O)CC(C)(C)CC4)cc2)NC(=O)OC2COC3(C)OCCC23)cc1 (stereo not shown) [Compound I-413]
IC50: 1.84 nM

COc1ccc(S(=O)(=O)N(CC(C)C)CC(O)C(Cc2ccc(NCC3CC(C)(C)CCC3c3sc4c(c3C(=O)O)CC(C)(C)CC4)cc2)NC(=O)OC2COC3(C)OCCC23)cc1 (stereo not shown) [Compound I-764]
IC50: 2.81 nM

COc1ccc(S(=O)(=O)N(CC(C)C)CC(O)C(Cc2ccc(OCc3ccccc3-c3sc(Cl)c(-c4ccccc4)c3C(=O)O)cc2)NC(=O)OC2COC3OCCC23)cc1 (stereo not shown) [Compound I-849]
IC50: 0.78 nM

COc1ccc(S(=O)(=O)N(CC(C)C)CC(O)C(Cc2ccc(OC(C)(C)C(=O)NS(=O)(=O)c3cccc(-c4ccc(F)cc4F)c3)cc2)NC(=O)OC2COC3(C)OCCC23)cc1 (stereo not shown) [Compound I-57]
IC50: 1.07 nM

COc1ccc(S(=O)(=O)N(CC(C)C)CC(O)C(Cc2ccc(N(C)Cc3ccncc3-c3sc4c(c3C(=O)O)CC(C)(C)CC4)cc2)NC(=O)OC2COC3(C)OCCC23)cc1 (stereo not shown) [Compound I-489]
IC50: 1.81 nM

COc1ccc(S(=O)(=O)N(CC(C)C)CC(O)C(Cc2ccc(N(C)Cc3cc(OC(F)(F)F)ccc3-c3sc4c(c3C(=O)O)CC(C)(C)CC4)cc2)NC(=O)OC2COC3(C)OCCC23)cc1 (stereo not shown) [Compound I-699]
IC50: 10.3 nM

COc1ccc(S(=O)(=O)N(CC(C)C)CC(O)C(Cc2ccc(NCCn3nc4c(c3C(=O)O)CC(C)(C)CC4)cc2)NC(=O)OC2COC3(C)OCCC23)cc1 (stereo not shown) [Compound I-516]
IC50: 2.29 nM

COc1ccc(S(=O)(=O)N(CC(C)C)CC(O)C(Cc2ccc(NCc3cc(-c4sc5c(c4C(=O)O)CC(C)(C)CC5)ccc3OC)cc2)NC(=O)OC2COC3(C)OCCC23)cc1 (stereo not shown) [Compound I-281]
IC50: 2.95 nM

COc1ccc(S(=O)(=O)N(CC(C)C)CC(O)C(Cc2ccc(OCc3ccccc3-c3ccc4c(O)c(-c5ccc(Oc6ccccc6)cc5)c(=O)n(C)c4c3)cc2)NC(=O)OC2COC3OCCC23)cc1 (stereo not shown) [Compound I-822]
IC50: 2.08 nM

COc1ccc(S(=O)(=O)N(CC(C)C)CC(O)C(Cc2ccc(NCc3cnn4ccc(C(=O)O)nc34)cc2)NC(=O)OC2COC3(C)OCCC23)cc1 (stereo not shown) [Compound I-320]
IC50: 1.95 nM

COc1ccc(S(=O)(=O)N(CC(C)C)CC(O)C(Cc2ccc(NCC3CCCCC3NC(=O)c3sc4c(c3C(=O)O)CC(C)(C)CC4)cc2)NC(=O)OC2COC3(C)OCCC23)cc1 (stereo not shown) [Compound I-611]
IC50: 1.95 nM

COc1ccc(S(=O)(=O)N(CC(C)C)CC(O)C(Cc2ccc(OCc3ccccc3-c3sc(C)c(-c4ccccc4)c3C(=O)O)cc2)NC(=O)OC2COC3OCCC23)cc1 (stereo not shown) [Compound I-824]
IC50: 1.01 nM

COc1ccc(S(=O)(=O)N(CC(C)C)CC(O)C(Cc2ccc(OCc3nccnc3-c3sc4c(c3C(=O)O)CC(C)(C)CC4)cc2)NC(=O)OC2COC3(C)OCCC23)cc1 (stereo not shown) [Compound I-187]
IC50: 2.21 nM

COc1ccc(S(=O)(=O)N(CC(C)C)CC(O)C(Cc2ccc(OCc3ccccc3-c3sc(N4CCC(C)(C)CC4)nc3C(=O)O)cc2)NC(=O)OC2COC3OCCC23)cc1 (stereo not shown) [Compound I-844]
IC50: 1.01 nM

COc1ccc(S(=O)(=O)N(CC(C)C)CC(O)C(Cc2ccc(OCc3ccccc3-c3sc4c(c3C(=O)O)CC(C)(C)CC4)cc2)NC(=O)OC2COC3(COC(=O)NCc4ccc(F)cc4)OCCC23)cc1 (stereo not shown) [Compound I-784]
IC50: 7.3 nM

COc1ccc(S(=O)(=O)N(CC(C)C)CC(O)C(Cc2ccc(OCc3ccc(C(=O)O)c(-c4ccc(F)cc4F)c3)cc2)NC(=O)OC2COC3(C)OCCC23)cc1 (stereo not shown) [Compound I-149]
IC50: 1.27 nM
